Experimental data published in patent publication US10766872B2, “Compounds for the treatment of mycobacterial infections” (The Broad Institute, Inc., priority 2011, dated 2020).
Counter-ions that a name gives are not always drawn. Like-named read-outs stand apart in the source and are kept apart here.

System: Mtb strain H37Rv
Experiment: Antitubercular activity, OD600 based growth inhibition assay (IC90)
Assay type: cell-based, Mycobacterium tuberculosis
[1] = Mycobacterium tuberculosis, H37RV, 168 h, Mtb H37Rv, 7 days incubation, growth read by OD600, concentration giving 90% inhibition of growth of the control, read-out: IC90
[2] = Mtb H37Rv, 7 days incubation, growth read by OD600, concentration giving 90% inhibition of growth of the control, read-out: IC90

SMILES | IC90 [1] | further results
Cc1cc2oc(=O)cc(-c3ccccc3)c2c(C)c1-c1ccc(CN2CCOCC2)cc1 [Compound 1, 5,7-Dimethyl-6-(4-(morpholinomethyl)phenyl)-4-phenyl-2H-chromen-2-one] | 0.001 to 10 µM | 
Cc1cc2oc(=O)cc(-c3ccccc3)c2c(C)c1-c1ccc(CN2CCCCC2)cc1 [Compound 2, 5,7-Dimethyl-4-phenyl-6-(4-(piperidine-1-ylmethyl)phenyl)-2H-chromen-2-one] | 10 to 50 µM | 
Cc1cc2oc(=O)cc(-c3ccccc3)c2c(C)c1-c1ccc(CNC2CCCCC2)cc1 [Compound 3, 6-(4-((Cyclohexylamino)methyl)phenyl)-5,7-dimethyl-4-phenyl-2H-chromen-2-one] | 0.001 to 10 µM | 
CCCCCCNCc1ccc(-c2c(C)cc3oc(=O)cc(-c4ccccc4)c3c2C)cc1 [Compound 4, 6-(4-((Hexylamino)methyl)phenyl)-5,7-dimethyl-4-phenyl-2H-chromen-2-one] | 0.001 to 10 µM | 
Cc1cc2oc(=O)cc(-c3ccccc3)c2c(C)c1-c1ccc(CN2CCN(C)CC2)cc1 [Compound 5, 5,7-Dimethyl-6-(4-((4-methylpiperazin-1-yl)methyl)phenyl)-4-phenyl-2H-chromen-2-one] | 0.001 to 10 µM | 
Cc1cc2oc(=O)cc(-c3cccc(N)c3)c2c(C)c1-c1ccc(CN2CCOCC2)cc1 [Compound 6, 4-(3-Aminophenyl)-5,7-dimethyl-6-(4-(morpholinomethyl)phenyl)-2H-chromen-2-one hydrochloride] |  | IC90 (Mycobacterium tuberculosis, H37RV, 168 h): 0.001 to 10 µM
Cc1cc2oc(=O)cc(-c3ccc(N)cc3)c2c(C)c1-c1ccc(CN2CCOCC2)cc1 [Compound 7, 4-(4-Aminophenyl)-5,7-dimethyl-6-(4-(morpholinomethyl)phenyl)-2H-chromen-2-one] | 10 to 50 µM | 
Cc1cc2oc(=O)cc(-c3cccc([N+](=O)[O-])c3)c2c(C)c1-c1ccc(CN2CCOCC2)cc1 [Compound 8, 5,7-Dimethyl-6-(4-(morpholinomethyl)phenyl)-4-(3-nitrophenyl)-2H-chromen-2-one] | 0.001 to 10 µM | 
COC(=O)c1cccc(-c2cc(=O)oc3cc(C)c(-c4ccc(CN5CCOCC5)cc4)c(C)c23)c1 [Compound 9, Methyl 3-(5,7-dimethyl-6-(4-(morpholinomethyl)phenyl)-2-oxo-2H-chromen-4-yl)benzoate] | 50 to 100 µM | 
CC(=O)Nc1cccc(-c2cc(=O)oc3cc(C)c(-c4ccc(CN5CCOCC5)cc4)c(C)c23)c1 [Compound 10, N-(3-(5,7-dimethyl-6-(4-(morpholinomethyl)phenyl)-2-oxo-2H-chromen-4-yl)phenyl)acetamide] | 10 to 50 µM | 
Cc1cc2oc(=O)cc(-c3cccc(NS(C)(=O)=O)c3)c2c(C)c1-c1ccc(CN2CCOCC2)cc1 [Compound 11, N-(3-(5,7-dimethyl-6-(4-(morpholinomethyl)phenyl)-2-oxo-2H-chromen-4-yl)phenyl)methanesulfonamide] | 50 to 100 µM | 
CCOC(=O)Nc1cccc(-c2cc(=O)oc3cc(C)c(-c4ccc(CN5CCOCC5)cc4)c(C)c23)c1 [Compound 12, Ethyl (3-(5,7-dimethyl-6-(4-(morpholinomethyl)phenyl)-2-oxo-2H-chromen-4-yl)phenyl)carbamate] |  | IC90 [2]: 10 to 50 µM
Cc1cc2oc(=O)cc(-c3cccnc3)c2c(C)c1-c1ccc(CN2CCOCC2)cc1 [Compound 13, 5,7-Dimethyl-6-(4-(morpholinomethyl)phenyl)-4-(pyridin-3-yl)-2H-chromen-2-one] | 0.001 to 10 µM | 
Cc1cc2oc(=O)cc(-c3ccccc3)c2c(C)c1-c1ccc(C#N)cc1 [Compound 14] | > 100 µM | 
Cc1ccc(-c2c(C)cc3oc(=O)cc(-c4ccccc4)c3c2C)cc1 [Compound 15] | 10 to 50 µM | 
COc1ccc(-c2c(C)cc3oc(=O)cc(-c4ccccc4)c3c2C)cc1 [Compound 16] | > 100 µM | 
COc1ccccc1-c1c(C)cc2oc(=O)cc(-c3ccccc3)c2c1C [Compound 17] | > 100 µM | 
COc1cccc(-c2c(C)cc3oc(=O)cc(-c4ccccc4)c3c2C)c1 [Compound 18] | 10 to 50 µM | 
Cc1cc2oc(=O)cc(-c3ccccc3)c2c(C)c1-c1ccc(O)cc1 [Compound 19] | > 100 µM | 
Cc1cc2oc(=O)cc(-c3ccccc3)c2c(C)c1-c1ccc(CO)cc1 [Compound 20] |  | IC90 [2]: 0.001 to 10 µM
Cc1cc(CO)ccc1-c1c(C)cc2oc(=O)cc(-c3ccccc3)c2c1C [Compound 21] | 10 to 50 µM | 
Cc1cc2oc(=O)cc(-c3ccccc3)c2c(C)c1-c1ccc(CS)cc1 [Compound 22] | > 100 µM | 
C=Cc1ccc(-c2c(C)cc3oc(=O)cc(-c4ccccc4)c3c2C)cc1 [Compound 23] | > 100 µM | 
CCc1ccc(-c2c(C)cc3oc(=O)cc(-c4ccccc4)c3c2C)cc1 [Compound 24] | > 100 µM | 
Cc1cc2oc(=O)cc(-c3ccccc3)c2c(C)c1-c1ccc(Cl)cc1 [Compound 25] | 50 to 100 µM | 

SMILES | IC90 [1] | further results
Cc1cc2oc(=O)cc(-c3ccccc3)c2c(C)c1-c1cccc(Cl)c1 [Compound 26] | > 100 µM | 
Cc1cc2oc(=O)cc(-c3ccccc3)c2c(C)c1-c1ccccc1Cl [Compound 27] | 10 to 50 µM | 
Cc1cc2oc(=O)cc(-c3ccccc3)c2c(C)c1-c1ccc(F)cc1 [Compound 28] | 10 to 50 µM | 
Cc1cc2oc(=O)cc(-c3ccccc3)c2c(C)c1-c1cccc(F)c1 [Compound 29] | 10 to 50 µM | 
Cc1cc2oc(=O)cc(-c3ccccc3)c2c(C)c1-c1ccc(C(F)(F)F)cc1 [Compound 30] | 10 to 50 µM | 
Cc1cc2oc(=O)cc(-c3ccccc3)c2c(C)c1-c1cccc(C(F)(F)F)c1 [Compound 31] | > 100 µM | 
CC(=O)c1ccc(-c2c(C)cc3oc(=O)cc(-c4ccccc4)c3c2C)cc1 [Compound 32] | > 100 µM | 
Cc1cc2oc(=O)cc(-c3ccccc3)c2c(C)c1-c1ccc(C(C)O)cc1 (stereo not shown) [Compound 33] | 0.001 to 10 µM | 
CNC(=O)c1ccc(-c2c(C)cc3oc(=O)cc(-c4ccccc4)c3c2C)cc1 [Compound 34] | 0.001 to 10 µM | 
Cc1cc2oc(=O)cc(-c3ccccc3)c2c(C)c1-c1ccncc1 [Compound 35] | 0.001 to 10 µM | 
Cc1cnccc1-c1c(C)cc2oc(=O)cc(-c3ccccc3)c2c1C [Compound 36] | 10 to 50 µM | 
Cc1cc2oc(=O)cc(-c3ccccc3)c2c(C)c1-c1cccnc1 [Compound 37] | 50 to 100 µM | 
COc1ncc(-c2c(C)cc3oc(=O)cc(-c4ccccc4)c3c2C)cn1 [Compound 38] | > 100 µM | 
COc1ncc(-c2c(C)cc3oc(=O)cc(-c4ccccc4)c3c2C)c(OC)n1 [Compound 39] | 10 to 50 µM | 
Cc1cc2oc(=O)cc(-c3ccccc3)c2c(C)c1-c1cnc(C)c2ccccc12 [Compound 40] | > 100 µM | 
Cc1cc2oc(=O)cc(-c3ccccc3)c2c(C)c1-c1cncnc1 [Compound 41] | 0.001 to 10 µM | 
Cc1ccc(/C=C/c2c(C)cc3oc(=O)cc(-c4ccccc4)c3c2C)cc1 [Compound 42] | 50 to 100 µM | 
CCOC(=O)Nc1cccc(-c2cc(=O)oc3cc(C)c(-c4ccc(CN5CCOCC5)cc4)c(C)c23)c1 [Compound 43] |  | IC90 [2]: > 100 µM
COc1ccc(-c2cc(=O)oc3cc(C)c(-c4ccc(CN5CCOCC5)cc4)c(C)c23)cc1 [Compound 44] | > 100 µM | 
Cc1ccc(-c2ccc3oc(=O)cc(-c4ccccc4)c3c2)cc1 [Compound 45] | > 100 µM | 
O=c1cc(-c2ccccc2)c2cc(-c3ccc(CO)cc3)ccc2o1 [Compound 47] | > 100 µM | 
Cc1cc2oc(=O)cc(-c3ccccc3)c2cc1-c1ccc(CO)cc1 [Compound 48] | 50 to 100 µM | 
Cc1c(-c2ccc(CO)cc2)ccc2oc(=O)cc(-c3ccccc3)c12 [Compound 49] | 50 to 100 µM | 
Cc1cc2oc(=O)cc(-c3ccccc3)c2c(C)c1-c1ccc(CO)cc1 [Compound 50] |  | IC90 [2]: > 100 µM
